Molecular target: Lysine-specific histone demethylase 1A (Homo sapiens, UniProt O60341)
Experiment: In Vitro Enzyme Inhibition Assay: This assay determines the ability of a test compound to inhibit LSD1 demethylase activity.

Going from `Cn1c(N2CCC(N)CC2)nc(-c2ccc(O)cc2)c(-c2ccc3c(ccn3C)c2)c1=O` to `Cn1c(N2CCC(N)CC2)nc(-c2ccc(C#N)c(F)c2)c(-c2ccc3c(ccn3C)c2)c1=O`, the IC50 falls from over 10000 nM to under 100 nM. The second is the more potent here.

`Cn1c(N2CCC(N)CC2)nc(-c2ccc(C#N)c(F)c2)c(-c2ccc3c(cnn3C)c2)c1=O` and `Cn1c(N2CCC(N)CC2)nc(-c2ccc(C#N)cc2)c(-c2ccc3c(cnn3C)c2)c1=O` cannot be ordered by IC50: under 100 nM for the first, under 100 nM for the second.

`Cn1c(N2CCC(N)CC2)nc(-c2ccc(C#N)c(F)c2)c(-c2ccc(C(F)(F)F)nc2)c1=O` and `Cn1c(N2CCC(N)CC2)nc(-c2ccc(C#N)c(F)c2)c(-c2ccc3cc[nH]c3c2)c1=O` cannot be ordered by IC50: under 100 nM for the first, under 100 nM for the second.

`Cn1cc2cc(-c3c(-c4ccc(C#N)cc4)nc(N4CCC(N)CC4)n(C)c3=O)ccc2n1` gave an IC50 of under 100 nM.

Reference: ChEMBL document CHEMBL5725765, “Inhibitors of lysine specific demethylase-1” (2017)
